Patent US8962609B2, “Pyrimidine compounds as inhibitors of protein kinases IKK epsilon and/or TBK-1, processes for their preparation, and pharmaceutical compositions containing them” (Domainex Limited, priority 2010, dated 2015)

Tests used:
IKKε = IKKε (Homo sapiens (Human), UniProt Q14164); test: IKKε time-resolved fluorescence Lanthascreen kinase inhibition assay; type: biochemical; conditions: 20 μM ATP (apparent Km), 2 nM kinase, 1 hr; values are activity bands; read-out: Inhibition of IKKε IC50
Description: (§1) Compounds of the invention (synthesised as described below) were tested for activity against the IKKε and TBK-1 enzyme as follows:
(§2) Inhibitions studies were performed using a time-resolved fluorescence-based Lanthascreen™ assay. Phosphorylation of a fluorescein-labelled substrate peptide is measured using terbium-labeled phosphospecific antibodies. Terbium is excited at 340 nm and the FRET energy transfer to fluorescein is measured at 495 and 520 nm. The emission ratio between 520 and 495 is a measure of the level of phosphorylation of the substrate by the kinase.
(§3) Kinase inhibition assays (10 μL) were performed at 20° C. in 384-well plate format. Compound IC50 values were determined at the apparent Km for ATP (20 μM) based on a radiometric assay (Invitrogen) using 8 or 10 point curves in duplicate. The final reaction conditions contained 400 nM fluorescein-IkBα substrate ([…]), 20 μM ATP, 2 nM or 8 nM IKKε or TBK1 kinase respectively, and 3% DMSO in kinase assay buffer consisting of 50 mM HEPES (pH 7.5), 10 mM MgCl, 1 mM EGTA, 0.01% Brij-35.
(§4) Compound dilutions were prepared from 10 mM DMSO stocks by dilution into DMSO.
(§5) The kinase phosphorylation assay was initiated by the addition of the kinase and the reaction was allowed to proceed for 1 hr or 2.5 hr for IKKε and TBK-1 kinase respectively. […] The reaction was stopped by the addition of 10 mM EDTA, and phosphorylation was detected after a 1 hr incubation with 1.5 nM terbium-labelled antibody against phosphorylation at Serine 32 on the IkBα[…]peptide, both in TR-FRET dilution buffer (Invitrogen).
(§6) In the data presented for IKKε, <9 μM means having an activity in the range from 300 nM≦9 μM; and <300 nM means having an activity in the range 30 nM≦300 nM; and for the data presented for TBK-1, <3 μM means having an activity in the range 300 nM≦3 μM, and <300 nM means having an activity in the range 30 nM≦300 nM.

TBK-1 = TBK-1 (Homo sapiens (Human), UniProt Q9UHD2); test: biochemical; conditions: 20 μM ATP (apparent Km), 8 nM kinase, 2.5 hr; values are activity bands; read-out: Inhibition of TBK-1 IC50
Description: as §1, §2, §3, §4, §5, §6

TBK-1, sequence (Q9UHD2 whole entry): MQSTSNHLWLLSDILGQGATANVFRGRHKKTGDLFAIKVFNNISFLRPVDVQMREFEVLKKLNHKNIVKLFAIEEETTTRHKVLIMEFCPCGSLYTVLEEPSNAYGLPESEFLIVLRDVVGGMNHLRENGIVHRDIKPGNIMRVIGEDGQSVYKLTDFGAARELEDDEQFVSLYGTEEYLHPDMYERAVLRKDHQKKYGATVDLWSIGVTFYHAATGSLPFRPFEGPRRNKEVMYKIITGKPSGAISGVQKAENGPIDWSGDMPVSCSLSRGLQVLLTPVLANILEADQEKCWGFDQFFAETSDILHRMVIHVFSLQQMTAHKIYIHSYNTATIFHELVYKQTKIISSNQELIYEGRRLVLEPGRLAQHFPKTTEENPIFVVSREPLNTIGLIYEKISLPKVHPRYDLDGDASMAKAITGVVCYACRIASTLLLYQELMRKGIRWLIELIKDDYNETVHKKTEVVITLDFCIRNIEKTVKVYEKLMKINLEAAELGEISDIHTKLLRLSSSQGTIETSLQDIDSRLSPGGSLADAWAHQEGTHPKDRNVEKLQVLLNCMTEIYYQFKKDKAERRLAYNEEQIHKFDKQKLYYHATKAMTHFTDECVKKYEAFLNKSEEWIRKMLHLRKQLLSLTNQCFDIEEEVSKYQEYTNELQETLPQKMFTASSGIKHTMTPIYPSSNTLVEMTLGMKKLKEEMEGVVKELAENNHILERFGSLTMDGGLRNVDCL
IKKε, sequence (Q14164 whole entry): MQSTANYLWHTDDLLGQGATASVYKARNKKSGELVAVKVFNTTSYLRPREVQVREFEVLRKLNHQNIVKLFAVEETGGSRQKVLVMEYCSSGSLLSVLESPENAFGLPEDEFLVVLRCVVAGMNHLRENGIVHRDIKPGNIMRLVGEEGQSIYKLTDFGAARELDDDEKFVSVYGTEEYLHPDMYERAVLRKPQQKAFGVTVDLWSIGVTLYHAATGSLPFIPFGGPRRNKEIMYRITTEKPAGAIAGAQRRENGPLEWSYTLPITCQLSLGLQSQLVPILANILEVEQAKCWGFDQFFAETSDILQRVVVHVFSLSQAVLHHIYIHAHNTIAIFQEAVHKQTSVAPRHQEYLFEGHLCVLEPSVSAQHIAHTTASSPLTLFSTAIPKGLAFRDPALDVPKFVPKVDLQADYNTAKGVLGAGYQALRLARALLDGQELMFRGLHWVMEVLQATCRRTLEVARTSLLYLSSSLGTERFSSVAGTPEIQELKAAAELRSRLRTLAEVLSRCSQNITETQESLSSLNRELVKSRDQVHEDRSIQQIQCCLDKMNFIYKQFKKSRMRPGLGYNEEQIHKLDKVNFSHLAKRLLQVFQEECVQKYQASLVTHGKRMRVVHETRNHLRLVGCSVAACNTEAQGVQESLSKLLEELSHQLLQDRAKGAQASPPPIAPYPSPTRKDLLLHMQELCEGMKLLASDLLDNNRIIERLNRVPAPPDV

SMILES | IC50 (IKKε) [nM] | IC50 (TBK-1) [nM]
CC(=O)Nc1ccc(Nc2nccc(-c3ccc(N4CCN(C)CC4)c(C#N)c3)n2)cn1 [DMX-47] | 30 to 300 | 30 to 300
CNC(=O)C1CCN(c2ccc(-c3ccnc(Nc4ccc(NC(C)=O)nc4)n3)cc2C#N)CC1 [DMX-68] | 30 to 300 | 30 to 300
CC(=O)N(C)c1ccc(Nc2nccc(-c3ccc(N4CCCC4)c(C#N)c3)n2)cc1 [DMX-37] | < 30 | < 30
C[C@H]1CCCN1c1ccc(-c2ccnc(Nc3ccc(NCCN(C)C)nc3)n2)cc1C#N [DMX-63] | < 30 | < 30
Cc1cc(Nc2nccc(-c3ccc(N4CCCC4)c(C#N)c3)n2)on1 [DMX-26] | 30 to 300 | 30 to 300
CN(C)CCNc1ccc(Nc2nccc(-c3ccc(N4CCC[C@@H]4C(N)=O)c(C#N)c3)n2)cn1 [DMX-72] | 30 to 300 | 30 to 300
CN1CCC(Nc2ccc(Nc3nccc(-c4ccc(N5CC[C@H](F)C5)c(C#N)c4)n3)cn2)CC1 [DMX-78] | < 30 | < 30
CN(C)CCN(C)c1ccc(Nc2nccc(-c3ccc(N4CCCC4)c(C#N)c3)n2)cn1 [DMX-34] | < 30 | < 30
CN1CCC(Nc2ccc(Nc3nccc(-c4ccc(N5CC[C@H](O)C5)c(C#N)c4)n3)cn2)CC1 [DMX-79] | < 30 | < 30
CN1CCN(c2ccc(Nc3nccc(-c4ccc(N5CC[C@H](O)C5)c(C#N)c4)n3)cn2)CC1 [DMX-54] | < 30 | < 30
CN(C)CCNc1ccc(Nc2nccc(-c3ccc(N4CCC(O)CC4)c(C#N)c3)n2)cn1 [DMX-65] | 30 to 300 | 30 to 300
CS(=O)(=O)c1cccc(Nc2nccc(-c3ccc(N4CCCC4)c(C#N)c3)n2)c1 [DMX-10] | < 30 | < 30
CC(=O)Nc1cccc(Nc2nccc(-c3ccc(N4CCCC4)c(C#N)c3)n2)c1 [DMX-7] | < 30 | < 30
CN1CCC(Nc2ccc(Nc3nccc(-c4ccc(N5CC[C@@H](F)C5)c(C#N)c4)n3)cn2)CC1 [DMX-77] | < 30 | < 30
CC(=O)Nc1ccc(Nc2nccc(-c3ccc(N4CCC[C@H]4C(N)=O)c(C#N)c3)n2)cn1 [DMX-70] | 30 to 300 | 30 to 300
CN(C)CCNc1ccc(Nc2nccc(-c3ccc(N4CC[C@H](O)C4)c(C#N)c3)n2)cn1 [DMX-62] | < 30 | < 30
Cn1cncc1Nc1nccc(-c2ccc(N3CCCC3)c(C#N)c2)n1 [DMX-60] | 30 to 300 | 30 to 300
CC(=O)Nc1ccc(Nc2nccc(-c3ccc(N4CCC(C(N)=O)CC4)c(C#N)c3)n2)cn1 [DMX-50, 1-{4-[2-(6-Acetylamino-pyridin-3-ylamino)-pyrimidin-4-yl]-2-cyano-phenyl}-piperidine-4-carboxylic acid amide] | < 30 | 30 to 300
CN(C)CC(=O)Nc1ccc(Nc2nccc(-c3ccc(N4CCCC4)c(C#N)c3)n2)cn1 [DMX-49] | < 30 | < 30
CN1CCN(c2ccc(Nc3nccc(-c4ccc(N5CCCC5)c(C#N)c4)n3)cn2)CC1 [DMX-19] | < 30 | < 30
CN(C)CCOc1ccc(Nc2nccc(-c3ccc(N4CCCC4)c(C#N)c3)n2)cn1 [DMX-61] | < 30 | < 30
CNC(=O)[C@H]1CCCN1c1ccc(-c2ccnc(Nc3ccc(NC(C)=O)nc3)n2)cc1C#N [DMX-67] | 300 to 9000 | < 9000
Cn1nccc1Nc1nccc(-c2ccc(N3CC[C@H](O)C3)c(C#N)c2)n1 [DMX-52] | 30 to 300 | 30 to 300
CC(=O)Nc1ccc(Nc2nccc(-c3ccc(N4CCOCC4)c(C#N)c3)n2)cn1 [DMX-46] | 30 to 300 | < 30
COc1ccc(Nc2nccc(-c3ccc(N4CCCC4)c(C#N)c3)n2)cn1 [DMX-58] | < 30 | < 30
Cn1ccc(Nc2nccc(-c3ccc(N4CCCC4)c(C#N)c3)n2)n1 [DMX-29] | 30 to 300 | 30 to 300
CC(=O)Nc1ccc(Nc2nccc(-c3ccc(N4CC[C@H](O)C4)c(C#N)c3)n2)cn1 [DMX-48] | < 30 | < 30
